{
  "source": "ChEMBL document CHEMBL1121640",
  "about": "“Analgesic narcotic antagonists. 6. 7 beta, 8 beta-Methano- and 7 beta, 8 beta-epoxydihydrocodeinone” (1981)",
  "key": {"Mus musculus [1]": {"system": "Mus musculus", "assay": "Compound was tested for analgesic activity by writhing assay in mouse after subcutaneous administration", "type": "functional", "settings": "sc"}, "Rattus norvegicus [2]": {"system": "Rattus norvegicus", "assay": "Compound was tested for analgesic activity by tail-flick assay in rat after subcutaneous administration; Inactive at 65 uM/Kg", "type": "functional, organism-based"}, "Rattus norvegicus [3]": {"system": "Rattus norvegicus", "assay": "Compound was tested for narcotic antagonist activity determined using an intraperitoneal ED80 of morphine in rat tail-flick assay", "type": "functional", "settings": "ip"}, "Rattus norvegicus [4]": {"system": "Rattus norvegicus", "assay": "Compound was tested for analgesic activity by tail-flick assay in rat after subcutaneous administration; Inactive at 30 uM/Kg", "type": "functional, organism-based"}, "Rattus norvegicus [5]": {"system": "Rattus norvegicus", "assay": "Compound was tested for narcotic antagonist activity determined using an intraperitoneal ED80 of morphine in rat tail-flick assay; Inactive at 55 uM/Kg", "type": "functional, organism-based"}, "Rattus norvegicus [6]": {"system": "Rattus norvegicus", "assay": "Compound was tested for narcotic antagonist activity determined using an intraperitoneal ED80 of morphine in rat tail-flick assay; Inactive at 50 uM/Kg", "type": "functional, organism-based"}, "Rattus norvegicus [7]": {"system": "Rattus norvegicus", "assay": "Compound was tested for analgesic activity by tail-flick assay in rat after subcutaneous administration", "type": "functional", "settings": "sc"}, "Mus musculus [8]": {"system": "Mus musculus", "assay": "Compound was tested for analgesic activity by writhing assay in mouse after subcutaneous administration; Inactive at 32 uM/Kg", "type": "functional, organism-based"}, "Rattus norvegicus [9]": {"system": "Rattus norvegicus", "assay": "Compound was tested for narcotic antagonist activity determined using an intraperitoneal ED80 of morphine in rat tail-flick assay; Inactive at 25 uM/Kg", "type": "functional, organism-based"}, "Rattus norvegicus [10]": {"system": "Rattus norvegicus", "assay": "Compound was tested for analgesic activity by tail-flick assay in rat after subcutaneous administration; Inactive at 25 uM/Kg", "type": "functional, organism-based"}, "Mus musculus [11]": {"system": "Mus musculus", "assay": "Compound was tested for analgesic activity by writhing assay in mouse after subcutaneous administration; Inactive at 10 uM/Kg", "type": "functional, organism-based"}, "Rattus norvegicus [12]": {"system": "Rattus norvegicus", "assay": "Compound was tested for analgesic activity by tail-flick assay in rat after subcutaneous administration; Inactive at 3 uM/Kg", "type": "functional, organism-based"}, "Rattus norvegicus [13]": {"system": "Rattus norvegicus", "assay": "Compound was tested for analgesic activity by tail-flick assay in rat after subcutaneous administration; Inactive at 32 uM/Kg", "type": "functional, organism-based"}},
  "note": "The source made the active and inactive calls. No cut-off for these calls is given here.",
  "data": [
    {"smiles": "COc1ccc2c3c1OC1[C@@H](O)[C@@H]4C[C@@H]4C4C(C2)N(C)CCC314", "note": "(stereo partly specified)", "values": [
      {"measurement": "ED50", "setting": "Mus musculus [1]", "result": 1.79, "unit": "µmol/kg"},
      {"measurement": "ED50", "setting": "Rattus norvegicus [2]", "result": "inactive"}
    ]},
    {"smiles": "COc1ccc2c3c1OC1C(=O)CC(SCCO)C4C(C2)N(CC2CC2)CCC314", "note": "(stereo unspecified)", "values": [
      {"measurement": "ED50", "setting": "Mus musculus [1]", "result": 3.4, "unit": "µmol/kg"},
      {"measurement": "ED50", "setting": "Rattus norvegicus [3]", "result": "> 30", "unit": "µmol/kg"}
    ]},
    {"smiles": "CC(C)=CCN1CC[C@]2(C)c3cc(O)ccc3C[C@H]1[C@H]2C", "note": "[(+)-PENTAZOCINE]", "values": [
      {"measurement": "ED50", "setting": "Mus musculus [1]", "result": 13, "unit": "µmol/kg"},
      {"measurement": "ED50", "setting": "Rattus norvegicus [3]", "result": 36.4, "unit": "µmol/kg"}
    ]},
    {"smiles": "COc1ccc2c3c1OC1C34CCN(C)C(C2)C4[C@H]2O[C@H]2[C@@]1(O)OC", "note": "(stereo partly specified)", "values": [
      {"measurement": "ED50", "setting": "Mus musculus [1]", "result": 18, "unit": "µmol/kg"},
      {"measurement": "ED50", "setting": "Rattus norvegicus [4]", "result": "inactive"}
    ]},
    {"smiles": "COc1ccc2c3c1OC1[C@@H](O)[C@@H]4C[C@@H]4C4C(C2)N(CC2CCC2)CCC314", "note": "(stereo partly specified)", "values": [
      {"measurement": "ED50", "setting": "Mus musculus [1]", "result": "> 55", "unit": "µmol/kg"},
      {"measurement": "ED50", "setting": "Rattus norvegicus [5]", "result": "inactive"}
    ]},
    {"smiles": "COc1ccc2c3c1OC1C(=O)[C@@H]4C[C@@H]4C4C(C2)N(CC2CCC2)CCC314", "note": "(stereo partly specified)", "values": [
      {"measurement": "ED50", "setting": "Mus musculus [1]", "result": 12.4, "unit": "µmol/kg"},
      {"measurement": "ED50", "setting": "Rattus norvegicus [6]", "result": "inactive"}
    ]},
    {"smiles": "COc1ccc2c3c1OC1C(=O)[C@@H]4C[C@@H]4C4C(C2)N(C)CCC314", "note": "(stereo partly specified)", "values": [
      {"measurement": "ED50", "setting": "Mus musculus [1]", "result": 0.43, "unit": "µmol/kg"},
      {"measurement": "ED50", "setting": "Rattus norvegicus [7]", "result": 4.7, "unit": "µmol/kg"}
    ]},
    {"smiles": "COc1ccc2c3c1OC1C(=O)[C@@H]4O[C@@H]4C4C(C2)N(C)CCC314", "note": "(stereo partly specified)", "values": [
      {"measurement": "ED50", "setting": "Mus musculus [8]", "result": "inactive"},
      {"measurement": "ED50", "setting": "Rattus norvegicus [7]", "result": "> 30", "unit": "µmol/kg"}
    ]},
    {"smiles": "COc1ccc2c3c1O[C@H]1C(=O)CC[C@H]4[C@@H](C2)N(C)CC[C@]314", "note": "[HYDROCODONE]", "values": [
      {"measurement": "ED50", "setting": "Mus musculus [1]", "result": 2.4, "unit": "µmol/kg"},
      {"measurement": "ED50", "setting": "Rattus norvegicus [7]", "result": 5.2, "unit": "µmol/kg"}
    ]},
    {"smiles": "COc1ccc2c3c1O[C@H]1C(=O)C=CC4[C@@H](C2)N(CC2CCC2)CC[C@@]341", "note": "(stereo partly specified)", "values": [
      {"measurement": "ED50", "setting": "Mus musculus [1]", "result": 20.3, "unit": "µmol/kg"},
      {"measurement": "ED50", "setting": "Rattus norvegicus [9]", "result": "inactive"}
    ]},
    {"smiles": "COc1ccc2c3c1O[C@H]1C(=O)CC(SCCO)C4C(C2)N(C)CCC341", "note": "(stereo partly specified)", "values": [
      {"measurement": "ED50", "setting": "Mus musculus [1]", "result": "> 25", "unit": "µmol/kg"},
      {"measurement": "ED50", "setting": "Rattus norvegicus [10]", "result": "inactive"}
    ]},
    {"smiles": "COc1ccc2c3c1OC1C(=O)[C@@H]4C[C@@H]4C4C(C2)N(CC2CC2)CCC314", "note": "(stereo partly specified)", "values": [
      {"measurement": "ED50", "setting": "Mus musculus [1]", "result": 9, "unit": "µmol/kg"},
      {"measurement": "ED50", "setting": "Rattus norvegicus [3]", "result": 8.7, "unit": "µmol/kg"}
    ]},
    {"smiles": "COc1ccc2c3c1O[C@H]1C(=O)CC(CCl)C4C(C2)N(C)CCC341", "note": "(stereo partly specified)", "values": [
      {"measurement": "ED50", "setting": "Mus musculus [1]", "result": 12.2, "unit": "µmol/kg"},
      {"measurement": "ED50", "setting": "Rattus norvegicus [10]", "result": "inactive"}
    ]},
    {"smiles": "COc1ccc2c3c1OC1C(=O)C=CC4C(C2)N(C)CCC314", "note": "(stereo unspecified)", "values": [
      {"measurement": "ED50", "setting": "Mus musculus [11]", "result": "inactive"},
      {"measurement": "ED50", "setting": "Rattus norvegicus [12]", "result": "inactive"}
    ]},
    {"smiles": "Oc1ccc2c(c1)[C@@]13CCCC[C@@]1(O)[C@@H](C2)N(CC1CCC1)CC3", "note": "[BUTORPHANOL]", "values": [
      {"measurement": "ED50", "setting": "Mus musculus [1]", "result": 0.34, "unit": "µmol/kg"},
      {"measurement": "ED50", "setting": "Rattus norvegicus [3]", "result": 2, "unit": "µmol/kg"}
    ]},
    {"smiles": "COc1ccc2c3c1O[C@H]1[C@@H](O)C=C[C@H]4[C@@H](C2)N(C)CC[C@@]341", "note": "[CODEINE]", "values": [
      {"measurement": "ED50", "setting": "Mus musculus [1]", "result": 10.3, "unit": "µmol/kg"},
      {"measurement": "ED50", "setting": "Rattus norvegicus [7]", "result": 75.1, "unit": "µmol/kg"}
    ]},
    {"smiles": "COc1ccc2c3c1O[C@H]1[C@@H](O)CC[C@H]4[C@@H](C2)N(C)CC[C@@]341", "note": "[DIHYDROCODEINE]", "values": [
      {"measurement": "ED50", "setting": "Mus musculus [1]", "result": 3.8, "unit": "µmol/kg"},
      {"measurement": "ED50", "setting": "Rattus norvegicus [7]", "result": "> 22", "unit": "µmol/kg"}
    ]},
    {"smiles": "COc1ccc2c3c1OC1[C@@H](O)[C@@H]4O[C@@H]4C4C(C2)N(C)CCC314", "note": "(stereo partly specified)", "values": [
      {"measurement": "ED50", "setting": "Mus musculus [8]", "result": "inactive"},
      {"measurement": "ED50", "setting": "Rattus norvegicus [13]", "result": "inactive"}
    ]}
  ]
}
